Measurements from patent US20200069648A1, “HALOALLYLAMINE PYRAZOLE DERIVATIVE INHIBITORS OF LYSYL OXIDASES AND USES THEREOF” (Pharmaxis Ltd., priority 2017, published 2020).
Structures can show the parent of a compound that is named as a salt.

How the values were obtained:
[1] = target: T1, human recombinant SSAO/VAP-1 (Homo sapiens, UniProt Q16853); experiment: Human recombinant SSAO/VAP-1 amine oxidase inhibition; format: biochemical; settings: 30 min preincubation at 37° C., 600 μM benzylamine
T1 construct: a cloned cDNA template corresponding to residues 34-763 of human SSAO/VAP-1; TEV cleavage site (N); made in house
T1 sequence (Q16853 34-763): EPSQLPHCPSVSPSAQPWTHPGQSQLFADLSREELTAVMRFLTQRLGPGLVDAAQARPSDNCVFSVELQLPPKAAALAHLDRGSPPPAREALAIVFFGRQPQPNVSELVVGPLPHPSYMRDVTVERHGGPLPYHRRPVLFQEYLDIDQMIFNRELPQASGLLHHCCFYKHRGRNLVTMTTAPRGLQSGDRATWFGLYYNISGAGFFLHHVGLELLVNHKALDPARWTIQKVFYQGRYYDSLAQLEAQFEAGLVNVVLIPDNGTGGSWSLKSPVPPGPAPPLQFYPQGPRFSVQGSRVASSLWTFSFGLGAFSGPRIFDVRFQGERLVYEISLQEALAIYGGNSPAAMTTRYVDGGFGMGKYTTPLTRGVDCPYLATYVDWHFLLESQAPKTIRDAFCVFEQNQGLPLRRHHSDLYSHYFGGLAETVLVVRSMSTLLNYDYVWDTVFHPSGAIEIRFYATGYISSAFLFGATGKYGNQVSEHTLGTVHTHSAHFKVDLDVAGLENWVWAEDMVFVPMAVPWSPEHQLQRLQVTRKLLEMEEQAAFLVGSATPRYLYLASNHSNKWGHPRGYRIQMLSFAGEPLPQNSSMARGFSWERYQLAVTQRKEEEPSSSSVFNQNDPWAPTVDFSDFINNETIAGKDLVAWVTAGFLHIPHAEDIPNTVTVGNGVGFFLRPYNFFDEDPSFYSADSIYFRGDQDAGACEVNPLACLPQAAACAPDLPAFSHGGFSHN
Procedure: Method to Determine the Ability of Compounds of Formula I to Inhibit Human Recombinant SSAO/VAP-1
Human recombinant SSAO/VAP-1 amine oxidase activity was determined using the coupled colorimetric method as described for monoamine oxidase, copper-containing amine oxidases and related enzymes (Holt A. and Palcic M., A peroxidase-coupled continuous absorbance plate-reader assay for flavin monoamine oxidases, copper-containing amine oxidases and related enzymes. Nat Protoc 2006; 1: 2498-2505). Briefly, a cloned cDNA template corresponding to residues 34-763 of human SSAO/VAP-1, and incorporating a mouse Ig kappa (κ) signal sequence, N-terminal flag epitope tag and tobacco etch virus (TEV) cleavage site, was assembled in a mammalian expression vector (pLO-CMV) by Geneart AG. This vector containing human SSAO/VAP-1 residues was transfected into CHO-K1 glycosylation mutant cell line, Lec 8. A clone stably expressing human SSAO/VAP-1 was isolated and cultured in large scale. Active human SSAO/VAP-I was purified and recovered using immunoaffinity chromatography. This was used as the source for SSAO/VAP-1 activity. A high-throughput colorimetric assay was developed using either 96 or 384 well format. Briefly, in a standard 96 well plate assay 50 μL of purified human SSAO/VAP-1 (0.25 μg/mL) in 0.1 M sodium phosphate buffer (pH 7.4) was added into each well. Test compounds were dissolved in DMSO and tested in a Concentration Response Curve (CRC) with 4-11 data points, typically in the micromolar or nanomolar range after incubation with human SSAO/VAP-1 for 30 min at 37° C. After 30 min incubation, 50 μL of the reaction mixture containing 600 μM benzylamine (Sigma Aldrich), 120 μM Amplex Red (Sigma Aldrich) and 1.5 U/mL horseradish peroxidase (Sigma Aldrich) prepared in 0.1 M sodium phosphate buffer (pH 7.4) were added to the corresponding well. The fluorescence unit (RFU) was read every 2.5 min for 30 min at 37° C. excitation 565 nm and emission 590 (Optima; BMG labtech). The slope of the kinetics for each well was calculated using MARS data analysis software (BMG labtech) and this value was used to deduce the IC50 value (Dotmatics).

Recombinant human MAO-B = target: T2, Recombinant human MAO-B (Homo sapiens, UniProt P27338); experiment: Human recombinant MAO-B inhibition; format: biochemical; settings: benzylamine 100 μM
T2 construct: purchased Sigma Aldrich
T2 sequence (P27338 1-520): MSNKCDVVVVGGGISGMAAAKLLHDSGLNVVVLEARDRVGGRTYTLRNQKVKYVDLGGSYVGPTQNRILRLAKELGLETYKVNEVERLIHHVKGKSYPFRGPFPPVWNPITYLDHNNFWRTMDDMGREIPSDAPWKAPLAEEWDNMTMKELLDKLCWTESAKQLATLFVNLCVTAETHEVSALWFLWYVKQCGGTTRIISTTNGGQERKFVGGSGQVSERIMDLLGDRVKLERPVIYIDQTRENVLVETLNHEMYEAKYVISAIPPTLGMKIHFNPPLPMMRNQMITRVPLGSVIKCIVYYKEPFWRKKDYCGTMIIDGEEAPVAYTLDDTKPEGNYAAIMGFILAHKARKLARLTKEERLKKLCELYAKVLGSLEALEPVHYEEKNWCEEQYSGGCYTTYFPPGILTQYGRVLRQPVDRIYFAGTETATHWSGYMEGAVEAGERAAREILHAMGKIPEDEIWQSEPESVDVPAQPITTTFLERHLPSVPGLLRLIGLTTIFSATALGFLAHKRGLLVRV
Procedure: Method to Determine the Ability of Compounds of Formula I to Inhibit Human Recombinant MAO-B
The specificity of the compounds of this invention was tested by determining their ability to inhibit MAO-B activities in vitro. Recombinant human MAO-B (0.06 mg/mL; Sigma Aldrich) was used as source of MAO-B enzyme activities. The assay was performed in a similar way as for human SSAO/VAP-1 (Example 46) except, the substrate benzylamine was used at 100 μM.

SMILES	IC50 [1] [µM]	IC50 (Recombinant human MAO-B) [µM]
Cc1nn(C/C(F)=C/CN)c(C(C)O)c1Cc1ccc(S(=O)(=O)N(C)C)c(Cl)c1 (single isomer, unassigned) [Compound 52, (Z)-4-((1-(4-amino-2-fluorobut-2-en-1-yl)-5-(1-hydroxyethyl)-3-methyl-1H-pyrazol-4-yl)methyl)-2-chloro-N,N-dimethylbenzenesulfonamide hydrochloride]	> 30	> 30
Cc1nn(C/C(F)=C/CN)c(C(C)O)c1Cc1ccc(S(=O)(=O)N(C)C)c(Cl)c1 (single isomer, unassigned) [Compound 53, (Z)-4-((1-(4-amino-2-fluorobut-2-en-1-yl)-5-(1-hydroxyethyl)-3-methyl-1H-pyrazol-4-yl)methyl)-2-chloro-N,N-dimethylbenzenesulfonamide hydrochloride]	> 30	> 30
N#CCCN [BAPN, β-aminopropionitrile, reference compound]	> 100	> 100
CN(C)S(=O)(=O)c1ccc(-c2cnn(C/C(F)=C/CN)c2)cc1 [Compound 1, (Z)-4-(1-(4-amino-2-fluorobut-2-en-1-yl)-1H-pyrazol-4-yl)-N,N-dimethyl benzenesulfonamide hydrochloride]	< 10	> 10
Cc1nn(C/C(F)=C/CN)c(C)c1Cc1ccc(S(=O)(=O)N(C)C)cc1 [Compound 2, (Z)-4-((1-(4-amino-2-fluorobut-2-en-1-yl)-3,5-dimethyl-1H-pyrazol-4-yl)methyl)-N,N-dimethylbenzenesulfonamide hydrochloride]	> 30	> 30
Cc1nn(C/C(F)=C/CN)c(C)c1Cc1ccc(S(=O)(=O)N(C)C)cc1Cl [Compound 3, (Z)-4-((1-(4-amino-2-fluorobut-2-en-1-yl)-3,5-dimethyl-1H-pyrazol-4-yl)methyl)-3-chloro-N,N-dimethylbenzenesulfonamide hydrochloride]	> 30	> 30
Cc1nn(C/C(F)=C/CN)c(C)c1Cc1ccc(S(C)(=O)=O)cc1 [Compound 4, (Z)-4-(3,5-dimethyl-4-(4-(methylsulfonyl)benzyl)-1H-pyrazol-1-yl)-3-fluorobut-2-en-1-amine hydrochloride]	> 30	> 30
Cc1nn(C/C(F)=C/CN)c(C)c1Cc1cccc(S(=O)(=O)N(C)C)c1 [Compound 5, (Z)-3-((1-(4-amino-2-fluorobut-2-en-1-yl)-3,5-dimethyl-1H-pyrazol-4-yl)methyl)-N,N-dimethyl benzenesulfonamide hydrochloride]	> 30	> 30
CC(C)c1nn(C/C(F)=C/CN)c(C(C)O)c1Cc1ccc(S(=O)(=O)N(C)C)c(Cl)c1 (centres unmarked) [Compound 59, (Z)-4-((1-(4-amino-2-fluorobut-2-en-1-yl)-5-(1-hydroxyethyl)-3-isopropyl-1H-pyrazol-4-yl)methyl)-2-chloro-N,N-dimethylbenzenesulfonamide hydrochloride]	> 30	–
CC(C)c1nn(C/C(F)=C/CN)c(C(C)C)c1Cc1ccc(S(=O)(=O)N(C)C)c(Cl)c1 [Compound 60, (Z)-4-((1-(4-amino-2-fluorobut-2-en-1-yl)-3,5-diisopropyl-1H-pyrazol-4-yl)methyl)-2-chloro-N,N-dimethylbenzenesulfonamide hydrochloride]	> 30	–
Cc1nn(C/C(F)=C/CN)c(C(=O)N(C)C)c1Cc1ccc(S(=O)(=O)N(C)C)c(Cl)c1 [Compound 61, (Z)-1-(4-amino-2-fluorobut-2-en-1-yl)-4-(3-chloro-4-(N,N-dimethylsulfamoyl)benzyl)-N,N,3-trimethyl-1H-pyrazole-5-carboxamide hydrochloride]	> 30	–
Cc1nn(C/C(F)=C/CN)c(C(=O)NC(C)(C)C)c1Cc1ccc(S(=O)(=O)N(C)C)c(Cl)c1 [Compound 62, (Z)-1-(4-amino-2-fluorobut-2-en-1-yl)-N-(tert-butyl)-4-(3-chloro-4-(N,N-dimethylsulfamoyl)benzyl)-3-methyl-1H-pyrazole-5-carboxamide hydrochloride]	> 30	–
